Source: patent EP0908457B1, “3-(1,2-benzisothiazol- and isoxazol-5-Y1)-2,4(1H,3H)-pyrimidinedione or thione and 3-(1,2-benzisothiazol- and isoxazol-5-y1)-4(3H)-pyrimidinone or thione herbicidal agents” (BASF AKTIENGESELLSCHAFT, priority 1997, dated 1999)

Columns and labels:
[1] = system: Echinochloa oryzoides (Ard.) Fritsch.; assay: Preemergence weed control under flooded paddy conditions, ECHORC (Watergrass (Calif.)); type: in vivo; conditions: preemergence, flooded paddy, rated three to four weeks after treatment; also: meaning of each grade not given here
[2] = system: Oryza sativa, (L.) Tebonnet; assay: Rice tolerance to post-transplant applications under flooded paddy conditions (Example 187), ORYSAT (Rice, Tebonnet); conditions: rated three to four weeks after treatment
[3] = system: Cyperus iria; assay: Preemergence weed control under flooded paddy conditions, CYPIR (Rice Flatsedge); type: in vivo; conditions: preemergence, flooded paddy, rated three to four weeks after treatment; also: meaning of each grade not given here
[4] = system: Cyperus serotinus, Rottb.; assay: Preemergence weed control under flooded paddy conditions, CYPSE (Flatsedge); type: in vivo; conditions: preemergence, rated three to four weeks after treatment; also: meaning of each grade not given here
[5] = system: Monochoria vaginalis, Presl.; assay: Preemergence weed control under flooded paddy conditions, MOOVA (Monochoria); type: in vivo; conditions: preemergence, flooded paddy, rated three to four weeks after treatment; also: meaning of each grade not given here
[6] = system: Sagittaria pygmaea, L.; assay: Preemergence weed control under flooded paddy conditions, SAGPY (Arrowhead (Pygmaea)); type: in vivo; conditions: preemergence, flooded paddy, rated three to four weeks after treatment; also: meaning of each grade not given here

SMILES	herbicidal effect rating, ECHORC ([1]; 0.0313 kg/ha)	herbicidal effect rating, ECHORC ([1]; 0.0625 kg/ha)	herbicidal effect rating, ECHORC ([1]; 0.1250 kg/ha)	herbicidal effect rating, ECHORC ([1]; 0.2500 kg/ha)	herbicidal effect rating, ORYSAT (rice tolerance) ([2]; 0.0313 kg/ha)	herbicidal effect rating, ORYSAT (rice tolerance) ([2]; 0.0625 kg/ha)	herbicidal effect rating, ORYSAT (rice tolerance) ([2]; 0.1250 kg/ha)	herbicidal effect rating, ORYSAT (rice tolerance) ([2]; 0.2500 kg/ha)	herbicidal effect rating, ECHORC ([1]; Rate 0.0320 kg/ha)	herbicidal effect rating, ECHORC ([1]; Rate 0.0620 kg/ha)	herbicidal effect rating, ECHORC ([1]; Rate 0.1250 kg/ha)	herbicidal effect rating, ECHORC ([1]; Rate 0.2500 kg/ha)	herbicidal effect rating, CYPIR ([3]; Rate 0.0320 kg/ha)	herbicidal effect rating, CYPIR ([3]; Rate 0.0620 kg/ha)	herbicidal effect rating, CYPIR ([3]; Rate 0.1250 kg/ha)	herbicidal effect rating, CYPIR ([3]; Rate 0.2500 kg/ha)	herbicidal effect rating, CYPSE ([4]; Rate 0.0620 kg/ha)	herbicidal effect rating, CYPSE ([4]; Rate 0.1250 kg/ha)	herbicidal effect rating, CYPSE ([4]; Rate 0.2500 kg/ha)	herbicidal effect rating, MOOVA ([5]; Rate 0.0320 kg/ha)	further results
Cn1c(C(F)(F)F)cc(=O)n(-c2ccc3snc(Br)c3c2)c1=O [Example 36, 3-(3-Bromo-1,2-benzisothiazol-5-yl)-1-methyl-6-(trifluoromethyl)-2,4(1H,3H)-pyrimidinedione]	0.0	0.0	0.0	0.0	1.0	1.0	1.0	1.0	–	–	–	–	–	–	–	–	–	–	–	–	–
Cn1c(C(F)(F)F)cc(=O)n(-c2ccc3snc(Cl)c3c2)c1=O [Example 37, 3-(3-Chloro-1,2-benzisothiazol-5-yl)-1-methyl-6-(trifluoromethyl)-2,4(1H,3H)-pyrimidinedione]	4.0	7.0	8.0	9.0	0.0	1.0	1.0	1.0	–	–	–	–	–	–	–	–	–	–	–	–	–
CCS(=O)(=O)NC(=O)C(C)Oc1ccc(C)cc1-c1nsc2ccc(-n3c(=O)cc(C(F)(F)F)n(C)c3=O)cc12 (stereo not shown) [Example 571, Propionamide, 2-{{2-{5-[3,6-dihydro-3-methyl-2,6-dioxo-4-(trifluoromethyl)-1(2H)-pyrimidinyl]-1,2-benzisothiazol-3-yl}-p-tolyl}oxy}-N-(ethylsulfonyl)]	–	–	–	–	–	–	–	–	0.0	2.0	3.0	6.0	0.0	3.0	3.0	9.0	0.0	0.0	0.0	0.0	herbicidal effect rating, CYPSE ([4]; Rate 0.0320 kg/ha): 0.0; herbicidal effect rating, MOOVA ([5]; Rate 0.0620 kg/ha): 6.0; herbicidal effect rating, MOOVA ([5]; Rate 0.1250 kg/ha): 7.0; herbicidal effect rating, MOOVA ([5]; Rate 0.2500 kg/ha): 9.0; herbicidal effect rating, SAGPY ([6]; Rate 0.0320 kg/ha): 0.0; herbicidal effect rating, SAGPY ([6]; Rate 0.0620 kg/ha): 0.0; herbicidal effect rating, SAGPY ([6]; Rate 0.1250 kg/ha): 0.0; herbicidal effect rating, SAGPY ([6]; Rate 0.2500 kg/ha): 0.0
C=CCC(c1nsc2ccc(-n3c(=O)cc(C(F)(F)F)n(C)c3=O)cc12)S(C)(=O)=O (stereo not shown) [Example 602, 2,4(1H,3H)-Pyrimidinedione, 1-methyl-3-{3-[1-(methylsulfonyl)-3-butenyl]-1,2-benzisothiazol-5-yl}-6-(trifluoromethyl)-]	–	–	–	–	–	–	–	–	0.0	5.0	9.0	9.0	3.0	3.0	5.0	5.0	0.0	7.0	9.0	7.0	herbicidal effect rating, MOOVA ([5]; Rate 0.0620 kg/ha): 7.0; herbicidal effect rating, MOOVA ([5]; Rate 0.1250 kg/ha): 8.0; herbicidal effect rating, MOOVA ([5]; Rate 0.2500 kg/ha): 9.0; herbicidal effect rating, SAGPY ([6]; Rate 0.0320 kg/ha): 0.0; herbicidal effect rating, SAGPY ([6]; Rate 0.0620 kg/ha): 0.0; herbicidal effect rating, SAGPY ([6]; Rate 0.1250 kg/ha): 0.0; herbicidal effect rating, SAGPY ([6]; Rate 0.2500 kg/ha): 3.0
